Patent US20180339053A1, “USE OF 1,2-DICARBOXYLIC ACID MONOAMIDE POLYMER AS SYNERGIST FOR CHEMOTHERAPY” (Nankai University, priority 2017, published 2018)
Where “and” joins values, the source holds several entries; their conditions need not be identical. Equal entries are not always repeated. Where two headings read alike, the source gives them in different places.

Columns and labels:
HepG2 cells = assay: Cytotoxicity experiment (MTS) of polymer and anti-cancer drug on HepG2 cells; assay type: cell-based, human; conditions: for viability at 4 µg/mL / viability at 5 µg/mL: Homo sapiens; for viability at 5 µg/mL: read-out: Cell Viability (%) Taxol
Description: (§1) A suspension of HepG2 cells diluted in 100 μL of a complete medium (a RPMI-1640 medium containing 10% fetal bovine serum and 1% penneillin/streptomycin) was added into a 96-well plate at a concentration of 5×10^3 cells per well, cultivated at 37 degrees Celsius for 24 hours. […] The solution was then aspirated, added with 100 μL of fresh complete medium and incubated continually for 24 hours. The culture medium was aspirated, added with 80 μL PBS solution and 20 μL cell proliferation reagent MTS, incubated at 37 degrees Celsius for 1 hour, and then measured with a microplate reader at 490 nm for absorbance.
(§2) This embodiment is an in vitro cell experiment of the effect of a polyallylamine-2,3-dimethyl maleic anhydride modifier with a molecular weight of 15,000 (PAA15K-DMA) for promoting the toxicity of different chemotherapeutic drugs on non-resistant HepG2 cells. According to the method described in Embodiment 4, the concentration of PAA15K-DMA was 25 μg/mL, and the obtained data was shown in Table 1.
as §2, with “polyallylamine-cyclohexene-1,2-dicarboxylic acid” for “polyallylamine-2,3-dimethyl maleic anhydride”, “200,000 (PAA200K-TPA)” for “15,000 (PAA15K-DMA)”, “PAA200K-TPA” for “PAA15K-DMA”, “Table 1 and FIG.” for “Table”
as §1, with “804” for “80 μL”
as §2, with “linear polyethylenimine-cyclohexene-1,2-dicarboxylic acid” for “polyallylamine-2,3-dimethyl maleic anhydride”, “10,000 (LPEI10K-TPA)” for “15,000 (PAA15K-DMA)”, “10,” for “4,”, “LPEI10K-TPA” for “PAA15K-DMA”, “15” for “25”
as §2, with “branched polyethyleneimine-1-methyl” for “polyallylamine-2,3-dimethyl”, “25,000 (BPEI25K-CA)” for “15,000 (PAA15K-DMA)”, “10,” for “4,”, “BPEI25K-CA” for “PAA15K-DMA”, “15” for “25”
(§3) This embodiment is an in vitro cell experiment of the effect of a 3rd-generation dendritic polypropyleneimine-3-carboxy-2-pentenedioic acid modifier (G3 PPI-AA) for promoting the toxicity of different chemotherapeutic drugs on non-resistant HepG2 cells. According to the method described in Embodiment 10, the concentration of G3 PPI-AA was 20 μg/mL, and the obtained data was shown in Table 1.
as §3, with “polypropyleneimine-2,3-dimethyl maleic anhydride” for “polypropyleneimine-3-carboxy-2-pentenedioic acid”, “PPI-DMA)” for “PPI-AA)”, “PPI-DMA” for “PPI-AA”, “1 and FIG. 3.” for “1.”
This embodiment is an in vitro cell experiment of the effect of a branched polylysine-cyclohexene-1,2-dicarboxylic acid modifier having a molecular weight of 2,000 (BPLys2K-TPA) for promoting the toxicity of different chemotherapeutic drugs on non-resistant HepG2 cells. […]

HepG2/ADR cells = assay: Cytotoxicity experiment (MTS) of polymer and anti-cancer drug on HepG2/ADR cells; assay type: cell-based; conditions: Homo sapiens, read-out: Cell Viability (%) Taxol
Description: as §1, with “HepG2/ADR” for “HepG2”, “2 hours,” for “1 hour,”
as §1, with “suspension of HepG2/ADR cells diluted” for “suspension of HepG2 cells diluted”, “in 100 IA of a” for “in 100 μL of a”, “Celsius for 2 hours, and then” for “Celsius for 1 hour, and then”, “for absorbance. […]” for “for absorbance.”

[1] = HepG2, pH = 6.5, 5 μg/mL taxol alone (control)
[2] = HepG2, pH = 7.4, 5 μg/mL taxol alone (control)

SMILES: COc1cccc2c1C(=O)c1c(O)c3c(c(O)c1C2=O)C[C@@](O)(C(=O)CO)C[C@@H]3O[C@H]1C[C@H](N)[C@H](O)[C@H](C)O1 [Doxorubicin, doxorubicin]
- viability at 4 µg/mL (HepG2 cells; HepG2, read-out: Cell Viability (%) Doxorubicin, pH = 6.5, 4 μg/mL doxorubicin alone (control)): 77%
- viability at 4 µg/mL (HepG2 cells; HepG2, read-out: Cell Viability (%) Doxorubicin, pH = 7.4, 4 μg/mL doxorubicin alone (control)): 72.9%
- Cell Viability (%) Doxorubicin (HepG2 cells; pH = 6.5, 4 μg/mL doxorubicin alone (control)): 78.59% and 77.13%
- Cell Viability (%) Doxorubicin (HepG2 cells; pH = 7.4, 4 μg/mL doxorubicin alone (control)): 70.75% and 73.82%

SMILES: CC(=O)O[C@H]1C(=O)[C@@]2(C)[C@H]([C@H](OC(=O)c3ccccc3)[C@]3(O)C[C@H](OC(=O)[C@H](O)[C@@H](NC(=O)c4ccccc4)c4ccccc4)C(C)=C1C3(C)C)[C@]1(OC(C)=O)CO[C@@H]1C[C@@H]2O [Taxol, taxol]
- viability at 5 µg/mL (HepG2 cells; [1]): 80.3%
- viability at 5 µg/mL (HepG2 cells; [2]): 83.1%
- Cell Viability (%) Taxol (HepG2 cells; pH = 6.5, 5 μg/mL taxol alone (control)): 78.66% and 76.08%
- Cell Viability (%) Taxol (HepG2 cells; pH = 7.4, 5 μg/mL taxol alone (control)): 82.38% and 80.61%
- viability at 5 µg/mL (HepG2/ADR cells; [1]): 84.5%
- viability at 5 µg/mL (HepG2/ADR cells; [2]): 89.2%
